Test results published in ChEMBL document CHEMBL1201862, “PubChem BioAssay data set” (2004).
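Values below derive from 48-hour exposures of cells grown in 96-well plates, with endpoints linearly interpolated between the two concentrations bracketing the appropriate inhibition level. GI50 = concentration required for 50% inhibition of growth.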 Calls of active or inactive are those of the source. Cut-off read from the data, not from the text of the source: active = GI50 up to about 1.1 µM and inactive = higher.

Legend:
Assay in all cases: NCI-60 cell line screen, 48 h
[1] = tested on: DMS-114
[2] = tested on: DMS-273
[3] = tested on: KM-20L2
[4] = tested on: M19-MEL
[5] = tested on: SNB-78
[6] = tested on: XF498
[7] = tested on: DLD-1
[8] = tested on: LXFL 529
[9] = tested on: RXF 631

| SMILES | GI50 [1] | GI50 [2] | GI50 [3] | GI50 [4] | GI50 [5] | GI50 [6] | GI50 [7] | GI50 [8] | GI50 [9] |
| --- | --- | --- | --- | --- | --- | --- | --- | --- | --- |
| CC(=O)OC12COC1CC(O)C1(C)C(=O)C(O)C3=C(C)C(O)CC(O)(C(OC(=O)c4ccccc4)C21)C3(C)C (stereo unspecified) | 6.97 µM (inactive) | 0.731 µM (active) | 1.41 µM (inactive) | 7.67 µM (inactive) | > 100 µM (inactive) | 2.36 µM (inactive) |  |  |  |
| CCOC(=O)C1(Br)S(=O)(=O)OCCOS1(=O)=O | > 100 µM (inactive) | > 100 µM (inactive) | > 100 µM (inactive) | > 100 µM (inactive) | > 100 µM (inactive) | > 100 µM (inactive) | > 100 µM (inactive) |  |  |
| C/C(=N/NS(=O)(=O)c1c(C)cc(C)cc1C)c1cccc[n+]1[O-] | > 100 µM (inactive) | > 100 µM (inactive) | > 100 µM (inactive) | > 100 µM (inactive) | > 100 µM (inactive) | > 100 µM (inactive) | > 100 µM (inactive) | > 100 µM (inactive) |  |
| C/C=C1\C[C@@H]2C(OC)Nc3cc(O)c(OC)cc3C(=O)N2C1 (stereo partly specified) | 0.00118 µM (active) | 0.00129 µM (active) | 0.00887 µM (active) | 0.00612 µM (active) |  |  | 0.00319 µM (active) | 0.00301 µM (active) | 0.00859 µM (active) |
| COC(=O)/C(=N\Nc1nnc(C)n1N)C(C#N)c1ccccc1 (stereo unspecified) | 21.5 µM (inactive) | > 100 µM (inactive) | > 100 µM (inactive) | 18.5 µM (inactive) | > 100 µM (inactive) | > 100 µM (inactive) | 31.1 µM (inactive) | 64.9 µM (inactive) | 83.6 µM (inactive) |
| CCOC(=O)C1=C(Nc2ccc(Cl)cc2Cl)OCC1=O |  | > 100 µM (inactive) | > 100 µM (inactive) | > 100 µM (inactive) | > 100 µM (inactive) | > 100 µM (inactive) | > 100 µM (inactive) | > 100 µM (inactive) | > 100 µM (inactive) |
| CC1CCCC2(O1)OC1CC(=O)OC1C1=C2C(=O)c2ccccc2C1=O (stereo unspecified) | 1.75 µM (inactive) | 1.8 µM (inactive) | 3.98 µM (inactive) | 2.72 µM (inactive) | 2.05 µM (inactive) | 2.72 µM (inactive) |  | 1.4 µM (inactive) |  |
| C/C=C/C(=O)[C@@H](O)C(C)C |  | > 100 µM (inactive) | > 100 µM (inactive) | > 100 µM (inactive) | > 100 µM (inactive) |  |  | > 100 µM (inactive) |  |
| O=C1C(c2ccccc2)=C(c2ccccc2)C(c2ccccc2)/C1=C1\C(=O)C(c2ccccc2)=C(c2ccccc2)C1c1ccccc1 (stereo unspecified) | > 100 µM (inactive) | > 100 µM (inactive) | > 100 µM (inactive) | > 100 µM (inactive) | > 100 µM (inactive) |  | > 100 µM (inactive) | > 100 µM (inactive) |  |
| Clc1cccc(N2CCN(CCCN3CCc4c([nH]c5ccccc45)C3c3cccnc3)CC2)c1 (stereo unspecified) | 5.52 µM (inactive) | 5.98 µM (inactive) | 4.28 µM (inactive) | 10.5 µM (inactive) | 5.69 µM (inactive) | 4.58 µM (inactive) | 11.2 µM (inactive) | 6.52 µM (inactive) | 3.63 µM (inactive) |
| CC(C)(C)C1C=C(Sc2ccccc2)C(=O)O1 (stereo unspecified) | 32.8 µM (inactive) | 40.7 µM (inactive) | 39.1 µM (inactive) | 48.9 µM (inactive) | 63 µM (inactive) |  | 42.5 µM (inactive) | 34.8 µM (inactive) |  |
| CCOC(=O)C1=C(O)C(=O)c2ccccc2C1=O | > 100 µM (inactive) | > 100 µM (inactive) |  | 22.2 µM (inactive) | > 100 µM (inactive) | > 100 µM (inactive) | > 100 µM (inactive) |  |  |
| Cc1cccc(C)c1N1C(=O)C(=O)C(c2nc3ccccc3s2)/C(=N/NC(=O)c2ccccc2O)C1=O (stereo unspecified) | 11.6 µM (inactive) | 4.74 µM (inactive) | 32.6 µM (inactive) | 13.1 µM (inactive) | 5.45 µM (inactive) | 12.4 µM (inactive) | 22.8 µM (inactive) | 10.2 µM (inactive) | 24.5 µM (inactive) |
| O=C(O)C12CC3CC(CC(F)(C3)C1)C2 | > 100 µM (inactive) | > 100 µM (inactive) | > 100 µM (inactive) | > 100 µM (inactive) | 32.2 µM (inactive) | > 100 µM (inactive) | > 100 µM (inactive) | > 100 µM (inactive) |  |
| O=C1C=C(c2c(O)ccc3ccccc23)c2ccccc2C1=O | 2.04 µM (inactive) | 3.46 µM (inactive) | 15.4 µM (inactive) | 1.64 µM (inactive) | 2.26 µM (inactive) |  | 3.76 µM (inactive) | 1.59 µM (inactive) | 6.56 µM (inactive) |
| C[C@]12CCC(=O)C(O)=C1CCC2=O |  | > 100 µM (inactive) | > 100 µM (inactive) | > 100 µM (inactive) | > 100 µM (inactive) |  | > 100 µM (inactive) | > 100 µM (inactive) |  |
| COc1cccc2c1C(=O)c1c(O)c3c(c(O)c1C2=O)C[C@@](O)(C(=O)CN1CCOCC1)C[C@@H]3OC1CC(N)C(O)C(C)O1 (stereo partly specified) | 3.52 µM (inactive) | 2.23 µM (inactive) | 9.77 µM (inactive) | 3.39 µM (inactive) |  | 2.45 µM (inactive) | 7.71 µM (inactive) |  |  |
| CC1=NCCc2cc3[nH]c4ccccc4c3cc21 | 11.6 µM (inactive) | 13.6 µM (inactive) | 11.2 µM (inactive) | 14.9 µM (inactive) | 28.2 µM (inactive) | 10.9 µM (inactive) | 19.2 µM (inactive) |  |  |
| Clc1ccc(-c2c(C3=NCCCN3)nnn2-c2ccccc2)cc1 | 47.2 µM (inactive) | > 100 µM (inactive) | 33.9 µM (inactive) | 69.5 µM (inactive) | > 100 µM (inactive) | > 100 µM (inactive) | 75 µM (inactive) | > 100 µM (inactive) | 75.3 µM (inactive) |
| COc1ccccc1NC(=O)C1=C(C)NC(C)=C(C(=O)Nc2ccccc2OC)C1c1ccccc1Cl | 45.5 µM (inactive) | > 100 µM (inactive) | 56.5 µM (inactive) | > 100 µM (inactive) |  | 37.7 µM (inactive) | > 100 µM (inactive) | > 100 µM (inactive) | > 100 µM (inactive) |
| C=C1C(=O)[C@@]23CC[C@H]4[C@@](C)(CCC[C@@]4(C)C(=O)OC)[C@@H]2CC[C@]1(O)C3 |  | 1.67 µM (inactive) |  | 1.56 µM (inactive) |  | 1.75 µM (inactive) | 0.32 µM (active) |  |  |
| C/N=c1/ss/c(=N\C(SC)=[N+](C)C)n1C.[O-][Cl+3]([O-])([O-])[O-] |  | > 100 µM (inactive) |  |  | > 100 µM (inactive) | > 100 µM (inactive) |  | > 100 µM (inactive) | 8.13 µM (inactive) |
